Test results as given in patent US20250319095A1, “USE OF BENZO[…] INCREASE SENSITIVITY TO […] A CHRONIC SSRI REGIMEN” (Compass Pathfinder Limited, priority 2020, published 2025).
≈ marks a conversion by molar mass, not a printed value.

How the values were obtained:
male C57BL/6J mice = assay: Psilocybin head twitch response with chronic diazepam pre-treatment; assay type: in vivo
Protocol: Sixty-two (60 plus 2 spares;) male C57BL/6J mice (20-25 g upon arrival) were purchased from Charles River UK. Animals were group housed (in 3 s and a pair) in polypropylene cages. Mice were maintained on a normal phase 12 h light-dark cycle (lights on: 07:00-19:00 h) with free access to standard rodent maintenance diet (standard pelleted diet Envigo 2018) and filtered tap water. The holding room was maintained at a temperature of 21±4° C. and relative humidity was 55±15% with prolonged periods below 40% RH or above 70% RH avoided as detailed in the UK Code of Practice. As a refinement, each cage contained sawdust, sizzle nest, a red house, Perspex tunnel, plastic chew stick and a nestlet so that the mice can make nests and facilitate warmth. Mice were weighed upon arrival and provided with wet mash overnight. The following morning, mice were weighed, and the mash removed.
Mice were weighed and allocated into 6 treatment groups by a statistician (as per Table 20 below). […] For groups A-D animals were placed individually in clean cages with a light dusting of sawdust immediately following psilocybin administration (0.3 mg/kg, s.c) for head twitch response assessment. Head twitches were counted by a trained observer over a 30 minute period.
Statistical significance was tested using two-way analysis of variance with treatment and observer as cofactors (Table 21 below).

Mouse [1] = assay: Ethovision activity to psilocybin after acute diazepam pretreatment; assay type: in vivo
Protocol: (§1) Animals were dosed as detailed by Table 10 below and were placed in a clean cage. The number of head twitches and wet dog shakes were then counted by a scorer for 30 minutes after dosing. The timings of head twitches and wet dog shakes were recorded by a computer program. The experiment was carried out over three days. Scorers were blinded to treatment group.
Ethovision data was organized into 5-minute and 15-minute time periods and 0-30 minutes for each animal. Ethovision scores were log transformed, however Shapiro-Wilk tests were significant for many of the 5-minute and 15-minute time windows. Therefore, robust regression was used to analyze the Ethovision data.
(§2) Number of head twitches over each 5-minute period and each 15-minute period and the total for 0-30 minutes were square-root transformed and analyzed by three way ANOVA with treatment, day, and scorer as factors. Ethovision data was analyzed by robust regression using M estimation, Huber weighting, using the default parameter C=1.345. The model used treatment, day, and scorer as factors.
(§3) P<0.05 was the level accepted for statistical difference. The chance of a false positive is 5% for each dose for each time. All tests were carried out as two-sided tests.

[2] = Solubility of psilocybin in water
Mouse [3] = assay: Head twitch response to psilocybin after acute diazepam pretreatment; assay type: in vivo
Protocol: as §1, §2, §3

[4] = 0 to 5 mins, Psilocybin 0.3 mg/kg sc 1 hr post Diazepam 4 mg/kg ip or Saline ip
[5] = 0 to 5 mins, Psilocybin 1 mg/kg sc 1 hr post Diazepam 4 mg/kg ip or Saline ip
[6] = 0 to 5 mins, Psilocybin 3 mg/kg sc 1 hr post Diazepam 4 mg/kg ip or Saline ip
[7] = 0 to 15 mins, Psilocybin 0.3 mg/kg sc 1 hr post Diazepam 4 mg/kg ip or Saline ip
[8] = 0 to 15 mins, Psilocybin 1 mg/kg sc 1 hr post Diazepam 4 mg/kg ip or Saline ip
[9] = 0 to 15 mins, Psilocybin 3 mg/kg sc 1 hr post Diazepam 4 mg/kg ip or Saline ip
[10] = 0 to 30 mins (total), Psilocybin 0.3 mg/kg sc 1 hr post Diazepam 4 mg/kg ip or Saline ip
[11] = 0 to 30 mins (total), Psilocybin 1 mg/kg sc 1 hr post Diazepam 4 mg/kg ip or Saline ip
[12] = 0 to 30 mins (total), Psilocybin 3 mg/kg sc 1 hr post Diazepam 4 mg/kg ip or Saline ip
[13] = 5 to 10 mins, Psilocybin 0.3 mg/kg sc 1 hr post Diazepam 4 mg/kg ip or Saline ip
[14] = 5 to 10 mins, Psilocybin 1 mg/kg sc 1 hr post Diazepam 4 mg/kg ip or Saline ip
[15] = 5 to 10 mins, Psilocybin 3 mg/kg sc 1 hr post Diazepam 4 mg/kg ip or Saline ip
[16] = 10 to 15 mins, Psilocybin 0.3 mg/kg sc 1 hr post Diazepam 4 mg/kg ip or Saline ip
[17] = 10 to 15 mins, Psilocybin 1 mg/kg sc 1 hr post Diazepam 4 mg/kg ip or Saline ip
[18] = 10 to 15 mins, Psilocybin 3 mg/kg sc 1 hr post Diazepam 4 mg/kg ip or Saline ip
[19] = 15 to 20 mins, Psilocybin 0.3 mg/kg sc 1 hr post Diazepam 4 mg/kg ip or Saline ip
[20] = 15 to 20 mins, Psilocybin 1 mg/kg sc 1 hr post Diazepam 4 mg/kg ip or Saline ip
[21] = 15 to 20 mins, Psilocybin 3 mg/kg sc 1 hr post Diazepam 4 mg/kg ip or Saline ip
[22] = 15 to 30 mins, Psilocybin 0.3 mg/kg sc 1 hr post Diazepam 4 mg/kg ip or Saline ip
[23] = 15 to 30 mins, Psilocybin 1 mg/kg sc 1 hr post Diazepam 4 mg/kg ip or Saline ip
[24] = 15 to 30 mins, Psilocybin 3 mg/kg sc 1 hr post Diazepam 4 mg/kg ip or Saline ip
[25] = 20 to 25 mins, Psilocybin 0.3 mg/kg sc 1 hr post Diazepam 4 mg/kg ip or Saline ip
[26] = 20 to 25 mins, Psilocybin 1 mg/kg sc 1 hr post Diazepam 4 mg/kg ip or Saline ip
[27] = 20 to 25 mins, Psilocybin 3 mg/kg sc 1 hr post Diazepam 4 mg/kg ip or Saline ip
[28] = 25 to 30 mins, Psilocybin 0.3 mg/kg sc 1 hr post Diazepam 4 mg/kg ip or Saline ip
[29] = 25 to 30 mins, Psilocybin 1 mg/kg sc 1 hr post Diazepam 4 mg/kg ip or Saline ip
[30] = 25 to 30 mins, Psilocybin 3 mg/kg sc 1 hr post Diazepam 4 mg/kg ip or Saline ip

CN(C)CCc1c[nH]c2cccc(OP(=O)(O)O)c12 [Psilocybin, psilocybin]
Mean head twitch responses (male C57BL/6J mice; 0-5 mins, Psilocybin 0.3 mg/kg sc 2 hr post Diazepam 1.25 mg/kg ip bid 14 days or Saline ip bid): 0.76
Mean head twitch responses (male C57BL/6J mice; 0-5 mins, Psilocybin 0.3 mg/kg sc 24 hr post Diazepam 1.25 mg/kg ip bid 14 days or Saline ip bid): 1.81
Mean head twitch responses (male C57BL/6J mice; 0-15 mins, Psilocybin 0.3 mg/kg sc 2 hr post Diazepam 1.25 mg/kg ip bid 14 days or Saline ip bid): 2.93
Mean head twitch responses (male C57BL/6J mice; 0-15 mins, Psilocybin 0.3 mg/kg sc 24 hr post Diazepam 1.25 mg/kg ip bid 14 days or Saline ip bid): 5.65
Mean head twitch responses (male C57BL/6J mice; 0-30 mins, Psilocybin 0.3 mg/kg sc 2 hr post Diazepam 1.25 mg/kg ip bid 14 days or Saline ip bid): 5.78
Mean head twitch responses (male C57BL/6J mice; 0-30 mins, Psilocybin 0.3 mg/kg sc 24 hr post Diazepam 1.25 mg/kg ip bid 14 days or Saline ip bid): 9.70
Mean head twitch responses (male C57BL/6J mice; 5-10 mins, Psilocybin 0.3 mg/kg sc 2 hr post Diazepam 1.25 mg/kg ip bid 14 days or Saline ip bid): 0.81
Mean head twitch responses (male C57BL/6J mice; 5-10 mins, Psilocybin 0.3 mg/kg sc 24 hr post Diazepam 1.25 mg/kg ip bid 14 days or Saline ip bid): 2.25
Mean head twitch responses (male C57BL/6J mice; 10-15 mins, Psilocybin 0.3 mg/kg sc 2 hr post Diazepam 1.25 mg/kg ip bid 14 days or Saline ip bid): 0.81
Mean head twitch responses (male C57BL/6J mice; 10-15 mins, Psilocybin 0.3 mg/kg sc 24 hr post Diazepam 1.25 mg/kg ip bid 14 days or Saline ip bid): 1.04
Mean head twitch responses (male C57BL/6J mice; 15-20 mins, Psilocybin 0.3 mg/kg sc 2 hr post Diazepam 1.25 mg/kg ip bid 14 days or Saline ip bid): 0.60
Mean head twitch responses (male C57BL/6J mice; 15-20 mins, Psilocybin 0.3 mg/kg sc 24 hr post Diazepam 1.25 mg/kg ip bid 14 days or Saline ip bid): 1.70
Mean head twitch responses (male C57BL/6J mice; 15-30 mins, Psilocybin 0.3 mg/kg sc 2 hr post Diazepam 1.25 mg/kg ip bid 14 days or Saline ip bid): 2.35
Mean head twitch responses (male C57BL/6J mice; 15-30 mins, Psilocybin 0.3 mg/kg sc 24 hr post Diazepam 1.25 mg/kg ip bid 14 days or Saline ip bid): 3.60
Mean head twitch responses (male C57BL/6J mice; 20-25 mins, Psilocybin 0.3 mg/kg sc 2 hr post Diazepam 1.25 mg/kg ip bid 14 days or Saline ip bid): 0.32
Mean head twitch responses (male C57BL/6J mice; 20-25 mins, Psilocybin 0.3 mg/kg sc 24 hr post Diazepam 1.25 mg/kg ip bid 14 days or Saline ip bid): 0.43
Mean head twitch responses (male C57BL/6J mice; 25-30 mins, Psilocybin 0.3 mg/kg sc 2 hr post Diazepam 1.25 mg/kg ip bid 14 days or Saline ip bid): 0.80
Mean head twitch responses (male C57BL/6J mice; 25-30 mins, Psilocybin 0.3 mg/kg sc 24 hr post Diazepam 1.25 mg/kg ip bid 14 days or Saline ip bid): 1.16
Ethovision data Mean (Mouse [1]; [4]): 801.48
Ethovision data Mean (Mouse [1]; [5]): 826.56
Ethovision data Mean (Mouse [1]; [6]): 785.38
Ethovision data Mean (Mouse [1]; [7]): 2149.79
Ethovision data Mean (Mouse [1]; [8]): 2025.10
Ethovision data Mean (Mouse [1]; [9]): 1667.64
Ethovision data Mean (Mouse [1]; [10]): 3782.48
Ethovision data Mean (Mouse [1]; [11]): 3368.87
Ethovision data Mean (Mouse [1]; [12]): 2403.79
Ethovision data Mean (Mouse [1]; [13]): 704.55
Ethovision data Mean (Mouse [1]; [14]): 665.97
Ethovision data Mean (Mouse [1]; [15]): 516.00
Ethovision data Mean (Mouse [1]; [16]): 641.76
Ethovision data Mean (Mouse [1]; [17]): 519.27
Ethovision data Mean (Mouse [1]; [18]): 353.03
Ethovision data Mean (Mouse [1]; [19]): 517.51
Ethovision data Mean (Mouse [1]; [20]): 430.23
Ethovision data Mean (Mouse [1]; [21]): 271.26
Ethovision data Mean (Mouse [1]; [22]): 1630.42
Ethovision data Mean (Mouse [1]; [23]): 1337.33
Ethovision data Mean (Mouse [1]; [24]): 719.96
Ethovision data Mean (Mouse [1]; [25]): 519.96
Ethovision data Mean (Mouse [1]; [26]): 444.11
Ethovision data Mean (Mouse [1]; [27]): 208.90
Ethovision data Mean (Mouse [1]; [28]): 551.06
Ethovision data Mean (Mouse [1]; [29]): 430.12
Ethovision data Mean (Mouse [1]; [30]): 213.04
solubility [2]: ~15 mg/mL (≈ 52.8 mM)
Head twitches Mean (Mouse [3]; [4]): 1.84
Head twitches Mean (Mouse [3]; [5]): 2.42
Head twitches Mean (Mouse [3]; [6]): 5.34
Head twitches Mean (Mouse [3]; [7]): 5.57
Head twitches Mean (Mouse [3]; [8]): 6.32
Head twitches Mean (Mouse [3]; [9]): 12.4
Head twitches Mean (Mouse [3]; [10]): 8.38
Head twitches Mean (Mouse [3]; [11]): 8.98
Head twitches Mean (Mouse [3]; [12]): 15.66
Head twitches Mean (Mouse [3]; [13]): 1.64
Head twitches Mean (Mouse [3]; [14]): 1.39
Head twitches Mean (Mouse [3]; [15]): 4.67
Head twitches Mean (Mouse [3]; [16]): 1.36
Head twitches Mean (Mouse [3]; [17]): 1.44
Head twitches Mean (Mouse [3]; [18]): 2.07
Head twitches Mean (Mouse [3]; [19]): 0.93
Head twitches Mean (Mouse [3]; [20]): 1.35
Head twitches Mean (Mouse [3]; [21]): 1.07
Head twitches Mean (Mouse [3]; [22]): 2.57
Head twitches Mean (Mouse [3]; [23]): 2.39
Head twitches Mean (Mouse [3]; [24]): 2.5
Head twitches Mean (Mouse [3]; [25]): 0.39
Head twitches Mean (Mouse [3]; [26]): 0.43
Head twitches Mean (Mouse [3]; [27]): 0.66
Head twitches Mean (Mouse [3]; [28]): 0.59
Head twitches Mean (Mouse [3]; [29]): 0.15
Head twitches Mean (Mouse [3]; [30]): 0.34
